Test results reported in publication PMC9686985, “Chimeric Peptides Derived from Bovine Lactoferricin and Buforin II: Antifungal Activity against Reference Strains and Clinical Isolates of Candida spp” (Antibiotics, 2022).
In brackets after ≈: the same amount, converted by molar mass. Read-outs that look alike come from different tables or passages of the source. Each block holds one molecule with its values, some of them ahead of it. Non-standard residues stand in square brackets, D forms with d. Residues, ends and D or L forms follow the SMILES beside them. Ahx = NCCCCCC(=O)O

Legend:
[1] = tested on: human red blood cells; parameters: method as in PMID 33369144; details: cited from earlier work
[2] = tested on: C. albicans 256 HUSI-PUJ; format: cell-based, Candida albicans; details: for MFC: 24 h; for MIC: 48 h
Procedure: (§1) Antifungal susceptibility testing was carried out using the broth microdilution (BMD) method, following the CLSI M27-A3 guidelines with slight modifications. Briefly, cells (0.5–2.5 × 10^3 CFU/mL) were incubated with peptides (200, 100, 50, 25, 12.5, and 6.25 µg/mL) at 37 °C for 48 h. MICs were visualized and densitometry (595 nm, microplate reader, Bio-Rad, ᵢMark^TM) was used to determine the lowest concentration of peptide that caused a significant decrease (MIC/2 or ≥50%) compared with the growth control (cells incubated in absence of peptide) (n = 3). In order to verify that the peptides were able to kill the yeast cells, the plates were also evaluated for minimum fungicidal concentration (MFC). Briefly, aliquots from each well from susceptibility testing assays were transferred to plates containing Sabouraud dextrose agar (SDA), which were then incubated at 37 °C for 24 h. The highest dilution with no growth on the agar plate was considered to be the MFC.

[3] = tested on: C. albicans ATCC SC5314; format: cell-based, Candida albicans; details: for MFC: ATCC SC5314, 24 h
Procedure: as §1

[4] = tested on: C. albicans 256; format: cell-based, Candida albicans; details: 256, 48 h
Procedure: (§2) A time-kill kinetic assay was carried out according to the method previously described by Pfaller and coworkers with minor modifications. The peptides (C5, C6, C8, and C9) diluted in RPMI were tested at a range of concentrations: 0 (control), 0.2, 0.5, 1, and 2 times the MIC value for each strain. The isolates were subcultured on SBD, and then an inoculum was adjusted to a 0.5–2.5 × 10^3 CFU/mL in an RPMI 1640 medium. Yeast inoculum (150 uL) was added to a 100-well plate containing serial dilutions of the peptides. The plates were incubated with agitation at 37 °C in a plate reader (Bioscreen C MBR automated turbidometric analyzer, Growth Curves Ltd., Helsinki, Finland), which takes hourly absorbance readings. Moreover, fluconazole MICs were used as a control. The readings were analyzed with Bioscreen software (Growth Curves USA, Piscataway, NJ, USA) and GraphPad Prism 8.0.1 (GraphPad Soft-ware, San Diego, CA, USA). Statistical comparisons were made using an analysis of variance (two-way ANOVA) followed by a Tukey–Kramer post hoc test. P values less than 0.005 were considered significant. […] Moreover, previously determined FLC MICs (data not shown) were used as a control.

[5] = tested on: C. albicans SC5314; format: cell-based, Candida albicans; details: SC5314, 48 h
Procedure: as §2

[6] = tested on: C. glabrata ATCC 2001; format: cell-based
Procedure: (§3) The in vitro interactions between the peptides (C6, C8, and C9) and the FLC drug were evaluated in a checkerboard assay, as previously described by Cokol et al.. Briefly, each isolate was prepared by picking colonies from an overnight culture in SBD at 37 °C and suspended in a sterile normal saline PBS buffer. The fungal inoculum was adjusted to 0.5 MacFarland and the inoculum was adjusted to 0.5–2.5 × 10^3 CFU/mL. The drug-peptide combinations were formed over a range of concentrations: 0 (control) and 0.06 to 2 times the MIC [51]. The fractional inhibitory concentration index (FICI) was calculated as follows:
(§4) FICI=CML peptide in combination/CMI peptide alone+CML FLC in combination/CMI FLC alone
(§5) The calculated FICI was reported as synergy with values FICI ≤ 0.5, additive FICI > 0.5–1, indifference FICI > 1–4, and antagonism FICI ≥ 4 [52].
(§6) A synergistic effect was considered to be when the effect of the combination exceeded the effects of the individual components. An additive effect was when the effect of the combination was equal to the sum of the effects of the individual components.

[7] = tested on: C. auris 001 HUSI-PUJ; format: cell-based
Procedure: as §3, §4, §5, §6

[8] = tested on: C. auris 537 HUSI-PUJ; format: cell-based
Procedure: as §3, §4, §5, §6

[9] = tested on: C. glabrata 1875 CHU-PUJ; format: cell-based
Procedure: as §3, §4, §5, §6

[10] = tested on: C. auris 537; format: cell-based; details: 537, 48 h
Procedure: as §1

[11] = tested on: C. auris 001; format: cell-based; details: 001, 48 h
Procedure: as §1

[12] = tested on: C. glabrata 1875; format: cell-based; details: 1875, 48 h
Procedure: as §1

[13] = tested on: C. albicans 256 HUSI-PUJ; format: cell-based, Candida albicans; details: 256 HUSI-PUJ
Procedure: as §3, §4, §5, §6

[14] = tested on: E. coli; details: reported; cited from earlier work
Source text: LfcinB (20–25): RRWQWR is the shortest sequence derived from LfcinB with antibacterial, antifungal, and anticancer activity. In similar way, Buforin II (BFII) is an antimicrobial peptide with activity against Gram-positive and Gram-negative bacteria as well as fungi. Palindromic sequences have been designed from the 4-residue motif (RLLR) of Buforin II, and their antibacterial activity has been evaluated against Gram-negative and Gram-positive strains. The palindrome [RLLR]5: […] was reported to have an MIC of 0.7 µM against E. coli. Chimeras containing the minimum motif RRWQW ...

[15] = checkerboard run with C6, unit from footnote of Table 4

Molecule: CC(C)C[C@H](NC(=O)[C@H](CC(C)C)NC(=O)[C@H](CCCCN)NC(=O)[C@H](CCCCN)NC(=O)[C@H](CC(C)C)NC(=O)[C@H](CC(C)C)NC(=O)[C@H](CCCCN)NC(=O)CCCCCNC(=O)[C@H](CCCNC(=N)N)NC(=O)[C@H](Cc1c[nH]c2ccccc12)NC(=O)[C@H](CCC(N)=O)NC(=O)[C@H](Cc1c[nH]c2ccccc12)NC(=O)[C@H](CCCNC(=N)N)NC(=O)[C@@H](N)CCCNC(=N)N)C(=O)N[C@@H](CCCCN)C(N)=O [C5] (H-RRWQWR[Ahx]KLLKKLLK-NH2)
Hemolytic effect [1]: 2–4%
MFC ([2]; 256 HUSI-PUJ): 97 µM (≈ 200 µg/mL)
MFC [3]: 97 µM (≈ 200 µg/mL)
Inhibition of growth [4]: more than 90%
Inhibition of growth [5]: more than 90%

MIC ([2]; FLC-resistant clinical isolate, broth microdilution CLSI M27-A3, 37 °C, ≥50% decrease vs growth control, n = 3): 64 µg/mL
MIC ([3]; FLC-sensitive reference strain, broth microdilution CLSI M27-A3, 37 °C, 48 h, ≥50% decrease vs growth control, n = 3): 1 µg/mL
MICb: MIC of fluconazole alone [6, 15]: 0.3 µg/mL
MICb: MIC of fluconazole alone [7, 15]: 32 µg/mL
MICb: MIC of fluconazole alone [8, 15]: 64 µg/mL
MICb: MIC of fluconazole alone [9, 15]: 4 µg/mL
Molecule: OC(Cn1cncn1)(Cn1cncn1)c1ccc(F)cc1F [FLC, fluconazole, reference compound]

MIC [10]: 96 µM (≈ 201 µg/mL)
MIC [11]: 96 µM (≈ 201 µg/mL)
MIC [12]: 96 µM (≈ 201 µg/mL)
MIC ([2]; 256 HUSI-PUJ): 24 µM
MIC ([3]; ATCC SC5314, 48 h): 24 µM
MICa: MIC of the chimeric peptide alone ([6]; ATCC 2001): 100 µg/mL
MICa: MIC of the chimeric peptide alone ([7]; 001 HUSI-PUJ): 400 µg/mL
MICa: MIC of the chimeric peptide alone ([8]; 537 HUSI-PUJ): 400 µg/mL
MICa: MIC of the chimeric peptide alone ([9]; 1875 CHU-PUJ): 400 µg/mL
MICa: MIC of the chimeric peptide alone [13]: 100 µg/mL
Molecule: CC(C)C[C@H](NC(=O)[C@H](CC(C)C)NC(=O)[C@H](CCCNC(=N)N)NC(=O)[C@H](CCCNC(=N)N)NC(=O)[C@H](CC(C)C)NC(=O)[C@H](CC(C)C)NC(=O)[C@H](CCCNC(=N)N)NC(=O)CCCCCNC(=O)[C@H](CCCCN)NC(=O)[C@H](Cc1c[nH]c2ccccc12)NC(=O)[C@H](CCC(N)=O)NC(=O)[C@H](Cc1c[nH]c2ccccc12)NC(=O)[C@H](CCCCN)NC(=O)[C@@H](N)CCCCN)C(=O)N[C@@H](CCCNC(=N)N)C(N)=O [C6] (H-KKWQWK[Ahx]RLLRRLLR-NH2)
Hemolytic effect [1]: 2–4%
MFC ([2]; 256 HUSI-PUJ): 48 µM (≈ 100 µg/mL)
MFC [3]: 48 µM (≈ 100 µg/mL)
Inhibition of growth [4]: more than 90%
Inhibition of growth [5]: more than 90%

Molecule: RLLRRLLRRLLRRLLRRLLR [[RLLR]5, palindrome designed from the RLLR motif of Buforin II]
MIC [14]: 0.7 µM
